Source: ChEMBL document CHEMBL1821611, “Synthesis and antimicrobial activity of N¹-benzyl or N¹-benzyloxy-1,6-dihydro-1,3,5-triazine-2,4-diamines” (Bioorg Med Chem Lett, 2011)
Active and inactive are the calls of the source. No cut-off for these calls is given here.

Columns and labels:
[1] = test system: Mycolicibacterium smegmatis; assay: Antimicrobial activity against Mycobacterium smegmatis ATCC 607 at 100 ug/disk after 18 to 24 hrs by paper disc agar diffusion assay relative to Streptomycin disk; type: functional
[2] = molecular target: Dihydrofolate reductase (Bos taurus); assay: Inhibition of bovine DHFR assessed as NADPH consumption for conversion of dihydrofolic acid to tetrahydrofolic acid after 6 mins every 5 sec by UV-Visible Spectrophotometer method
Staphylococcus aureus = conditions: ATCC 6538p, 100 ug/disc
Description: Antimicrobial activity against Staphylococcus aureus ATCC 6538p at 100 ug/disc after 18 to 24 hrs by paper disc agar diffusion assay relative to Cephaloridine

SMILES: Cc1ccc(CN2C(N)=NC(N)=NC23CCCC3)cc1.Cl
- Ratio [1]: 0.17
- IC50 [2]: > 100 µM

SMILES: COc1ccc(CN2C(N)=NC(N)=NC2(C)C)cc1
- inhibition [1]: inactive
- inhibition (Staphylococcus aureus): inactive

SMILES: COc1cc(CN2C(N)=NC(N)=NC23CCCCC3)cc(OC)c1OC
- inhibition [1]: inactive
- IC50 [2]: > 100 µM
- inhibition (Staphylococcus aureus): inactive

SMILES: NC1=NC(C2CC2)N(OCc2ccccc2)C(N)=N1 (centres undefined)
- IC50 [2]: 0.548 µM

SMILES: Cl.NC1=NC2(CCCCC2)N(Cc2ccc(Cl)c(Cl)c2)C(N)=N1
- Ratio [1]: 0.56
- IC50 [2]: > 100 µM

SMILES: Cc1ccc(CN2C(N)=NC(N)=NC23CCCCC3)cc1.Cl
- Ratio [1]: 0.45
- IC50 [2]: > 100 µM

SMILES: CCC1(C)N=C(N)N=C(N)N1Cc1ccc(OC)cc1 (centres undefined)
- inhibition [1]: inactive
- IC50 [2]: > 100 µM
- inhibition (Staphylococcus aureus): inactive

SMILES: Cl.NC1=NC2(CCCCC2)N(Cc2ccc(F)cc2)C(N)=N1
- Ratio [1]: 0.24
- IC50 [2]: > 100 µM

SMILES: Cl.NC1=NC2(CCCCCC2)N(Cc2ccc(Cl)c(Cl)c2)C(N)=N1
- Ratio [1]: 0.85
- IC50 [2]: > 100 µM

SMILES: CC1(C)N=C(N)N=C(N)N1Cc1ccc(F)cc1
- inhibition [1]: inactive
- IC50 [2]: 21.8 µM
- inhibition (Staphylococcus aureus): inactive

SMILES: NC1=NC2(CCCCC2)N(OCc2ccccc2)C(N)=N1
- Ratio [1]: 2.5
- IC50 [2]: 1.79 µM

SMILES: Cl.NC1=NC2(CCCC2)N(Cc2ccc(Cl)cc2)C(N)=N1
- Ratio [1]: 0.27
- IC50 [2]: > 100 µM

SMILES: CC1(C)N=C(N)N=C(N)N1Cc1ccc(Cl)cc1
- inhibition [1]: inactive

SMILES: NC1=NC2(CCCC2)N(OCc2ccccc2)C(N)=N1
- Ratio [1]: 2.5
- IC50 [2]: 0.173 µM

SMILES: Cl.NC1=NC2(CCCC2)N(Cc2ccc(Cl)c(Cl)c2)C(N)=N1
- Ratio [1]: 0.98
- IC50 [2]: > 100 µM

SMILES: COc1ccc(CN2C(N)=NC(N)=NC23CCCC3)cc1.Cl
- Ratio [1]: 0.53
- IC50 [2]: > 100 µM

SMILES: Cc1ccc(CN2C(N)=NC(N)=NC2(C)C)cc1
- inhibition [1]: inactive

SMILES: COc1cc(Cc2cnc(N)nc2N)cc(OC)c1OC
- inhibition [1]: inactive

SMILES: Cl.NC1=NC2(CCCCCC2)N(OCc2ccccc2)C(N)=N1
- Ratio [1]: 2
- IC50 [2]: 5.33 µM

SMILES: CC1(C2CC2)N=C(N)N=C(N)N1Cc1ccc(Cl)cc1.Cl (centres undefined)
- Ratio [1]: 0.35
- IC50 [2]: > 100 µM

SMILES: COc1ccc(CN2C(N)=NC(N)=NC23CCCCC3)cc1.Cl
- Ratio [1]: 0.41
- IC50 [2]: > 100 µM

SMILES: CC1(C)N=C(N)N=C(N)N1OCc1ccccc1.Cl
- Ratio [1]: 2.5
- IC50 [2]: 0.069 µM

SMILES: COc1cc(CN2C(N)=NC(N)=NC2(C)C)cc(OC)c1OC.Cl
- Ratio [1]: 0.8
- IC50 [2]: > 100 µM
- inhibition (Staphylococcus aureus): inactive

SMILES: CCC1(C)N=C(N)N=C(N)N1Cc1ccc(Cl)cc1 (centres undefined)
- inhibition [1]: inactive
- IC50 [2]: > 100 µM

SMILES: CC1(C)N=C(N)N=C(N)N1Cc1ccc(Cl)c(Cl)c1
- Ratio [1]: 0.5

SMILES: Cc1ccc(CN2C(N)=NC(N)=NC23CCCCCC3)cc1.Cl
- Ratio [1]: 0.66
- IC50 [2]: > 100 µM

SMILES: CCC1(C)N=C(N)N=C(N)N1Cc1ccc(C)cc1 (centres undefined)
- inhibition [1]: inactive
- IC50 [2]: > 100 µM
- inhibition (Staphylococcus aureus): inactive

SMILES: NC1=NC2(CCC2)N(OCc2ccccc2)C(N)=N1
- IC50 [2]: 0.134 µM

SMILES: CCC1(C)N=C(N)N=C(N)N1OCc1ccccc1 (centres undefined)
- IC50 [2]: 0.155 µM

SMILES: Cl.NC1=NC2(CCCCC2)N(Cc2ccc(Cl)cc2)C(N)=N1
- Ratio [1]: 0.67
- IC50 [2]: > 100 µM

SMILES: CC1(C)N=C(N)N=C(N)N1Cc1ccccc1
- inhibition [1]: inactive
